These are literature values, as cited in PMC8801796 (Reproductive Toxicology (Elmsford, N.y.), 2022).

Like-named read-outs stand apart in the source and are kept apart here.

The subject of data set [1] is rats. The following applies: cited from earlier work.
The test system of a further data set is rabbits. The following applies: cited from earlier work.
Data set [2] relates to bacterial reverse mutation. The following applies: in vitro; cited from earlier work.
Data set [3] relates to hypoxanthine phosphoribosyltransferase (HPRT) gene. The following applies: mammalian cell; cited from earlier work.
In data set [4] the test system is Big Blue® (cII Locus) transgenic rodent. The following applies: cited from earlier work.
Data set [5] concerns monkeys, mice, rats, and rabbits. The following applies: cited from earlier work.
In data set [6] the test system is rats. The following applies: rat PPND, maternal dosing GD 6 to postpartum day 20; cited from earlier work.
The subject of data set [7] is rats, rabbits, and guinea pigs. The following applies: cited from earlier work.

Take `CC(C)C(=O)OC[C@H]1O[C@@H](n2ccc(NO)nc2=O)[C@H](O)[C@@H]1O` [molnupiravir]: the Developmental toxicity entry was “no developmental toxicity” in the data set on rats [1] (rats, 250 mg/kg/day); “lower fetal body weights and delayed ossification” in the data set on rats [1] (rats, 500 mg/kg/day, in the presence of decreased maternal body weight gain); “severe manifestations of developmental toxicity (malformations and embryo-fetal lethality)” in the data set on rats [1] (rats, 1000 mg/kg/day (highest dose)); “no developmental toxicity” in the data set with rabbits (rabbits, 400 mg/kg/day); “lower fetal body weights” in the data set on rabbits (rabbits, 750 mg/kg/day, in the presence of slight maternal toxicity). Also, the Ames assay result in data set [2] is reported as “positive”. Further, the “HPRT gene mutation assay result” value in data set [3] is “positive”. For the same compound, the “Big Blue transgenic rodent mutagenesis assay result” value in data set [4] was “negative”.
`NC(=O)c1nc(F)c[nH]c1=O` [FAV, favipiravir]: the Teratogenicity entry in data set [5] is given as “teratogenesis has been reported”.
With `CC(C)c1nc(CN(C)C(=O)N[C@H](C(=O)N[C@@H](Cc2ccccc2)C[C@H](O)[C@H](Cc2ccccc2)NC(=O)OCc2cncs2)C(C)C)cs1` [ritonavir], the “Cryptorchidism in rat EFD study” value in the data set with rats [1] (mid (35 mg/kg/day) and high (75 mg/kg/day) doses) is recorded as “cryptorchidism was reported”. Besides, the Fetal malformations result in the data set on rats [1] (rat EFD, doses of 15, 35, and 75 mg/kg) is on record as “no evidence of fetal malformations”; with rabbits (rabbit EFD, doses of 25, 50, and 110 mg/kg/day), “no evidence of fetal malformations”. Moreover, the “Developmental toxicity findings in EFD studies” value with rats [1] (rats and/or rabbits, only at the highest dose evaluated in each species, maternally toxic doses) is “higher resorptions, lower fetal body weight, ossification delays, and increased skeletal variations”. Besides, the “Cryptorchidism in postnatal developing rats” value in the data set on rats [6] is given as “no reports of cryptorchidism”.
On to `CCC(CC)COC(=O)[C@H](C)N[P@](=O)(OC[C@H]1O[C@@](C#N)(c2ccc3c(N)ncnn23)[C@H](O)[C@@H]1O)Oc1ccccc1` [remdesivir], for which the “Effects on embryo-fetal development” value in the data set with rats [1] (rats, up the highest dose tested, 20 mg/kg/day) is recorded as “no adverse effects on embryo-fetal development”; in the data set on rabbits (rabbits, up the highest dose tested, 20 mg/kg/day), “no adverse effects on embryo-fetal development”.
Consider `NC(=O)c1ncn([C@@H]2O[C@H](CO)[C@@H](O)[C@H]2O)n1` [RBV, ribavirin], for which the Teratogenicity entry in data set [7] is “embryocidal and/or teratogenic”.
